Test results: PubChem BioAssay AID256 (DTP/NCI, 2004)
“And” between values parts separate entries of the source, which are not always exact repeats. Equal entries are not always repeated. Toxic doses and inconclusive results are not listed.

System: CD2F1 mice, L1210 leukemia ip, survival T/C
Test: NCI In Vivo Anticancer Drug Screen. Data for tumor model L1210 Leukemia (intraperitoneal) in CD2F1 (CDF1) mice
Conditions: higher = longer survival
Procedure, shortened: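 Mice carrying a transplanted tumor received test compound or vehicle alone. The value is the measurement in the treated group divided by that in the vehicle-treated control group.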

[1] = endpoint: mean survival time, dose: 50.0 mg/kg/injection, schedule: Q01DX009 (ip), vehicle: saline with Tween-80
[2] = endpoint: mean survival time, dose: 100.0 mg/kg/injection, schedule: Q01DX009 (ip), vehicle: saline with Tween-80
[3] = endpoint: mean survival time, dose: 100.0 mg/kg/injection, schedule: Q04DX003 (ip), vehicle: saline with Tween-80
[4] = endpoint: mean survival time, dose: 200.0 mg/kg/injection, schedule: Q04DX003 (ip), vehicle: saline with Tween-80
[5] = endpoint: mean survival time, dose: 100.0 mg/kg/injection, schedule: Q04DX003 (ip), vehicle: Klucel (hydroxypropylcellulose) (HPC)
[6] = endpoint: mean survival time, dose: 200.0 mg/kg/injection, schedule: Q04DX003 (ip), vehicle: Klucel (hydroxypropylcellulose) (HPC)
[7] = endpoint: mean survival time, dose: 400.0 mg/kg/injection, schedule: Q04DX003 (ip), vehicle: Klucel (hydroxypropylcellulose) (HPC)
[8] = endpoint: mean survival time, dose: 200.0 mg/kg/injection, schedule: Q01DX009 (ip), vehicle: saline with Tween-80
[9] = endpoint: mean survival time, dose: 400.0 mg/kg/injection, schedule: Q01DX009 (ip), vehicle: saline with Tween-80
[10] = endpoint: mean survival time, dose: 400.0 mg/kg/injection, schedule: Q04DX003 (ip), vehicle: saline with Tween-80

`Nc1nc(SCc2ccccc2)c2[nH]cnc2n1` was tested, and the T/C (endpoint: mean survival time, dose: 15.6 mg/kg/injection, schedule: Q01DX009 (ip), vehicle: saline) was 118 % of control, the T/C (endpoint: mean survival time, dose: 31.3 mg/kg/injection, schedule: Q01DX009 (ip), vehicle: saline) was 158 % of control and 183 % of control and the T/C (endpoint: mean survival time, dose: 37.5 mg/kg/injection, schedule: Q03DX003 (ip), vehicle: saline) was 151 % of control. For the same compound, the T/C (endpoint: mean survival time, dose: 37.5 mg/kg/injection, schedule: Q04DX003 (ip), vehicle: saline) was 164 % of control, the T/C (endpoint: mean survival time, dose: 62.5 mg/kg/injection, schedule: Q01DX009 (ip), vehicle: saline) was 180 % of control and 181 % of control and the T/C (endpoint: mean survival time, dose: 75.0 mg/kg/injection, schedule: Q04DX003 (ip), vehicle: saline) was 160 % of control. The T/C (endpoint: mean survival time, dose: 125.0 mg/kg/injection, schedule: Q01DX009 (ip), vehicle: saline) was 161 % of control, the T/C (endpoint: mean survival time, dose: 150.0 mg/kg/injection, schedule: Q01DX007 (ip), vehicle: saline) was 107 % of control and the T/C (endpoint: mean survival time, dose: 150.0 mg/kg/injection, schedule: Q01DX009 (ip), vehicle: saline) was 100 % of control. For the same compound, the T/C (endpoint: mean survival time, dose: 150.0 mg/kg/injection, schedule: Q03DX003 (ip), vehicle: saline) was 150 % of control, the T/C (endpoint: median survival time, dose: 31.3 mg/kg/injection, schedule: Q01DX009 (ip), vehicle: saline) was 150 % of control and 162 % of control and the T/C (endpoint: median survival time, dose: 62.5 mg/kg/injection, schedule: Q01DX009 (ip), vehicle: saline) was 155 % of control and 156 % of control. The T/C (endpoint: median survival time, dose: 125.0 mg/kg/injection, schedule: Q01DX009 (ip), vehicle: saline) was 88 % of control and 112 % of control and the T/C (endpoint: median survival time, dose: 250.0 mg/kg/injection, schedule: Q01DX009 (ip), vehicle: saline) was 87 % of control.
For `NNC(=O)c1cc(NN)ccn1`, the T/C [1] was 102 % of control, the T/C [2] was 100 % of control and the T/C [3] was 100 % of control. The T/C [4] was 98 % of control.
For `C=C1C(=O)OCC1C(=O)O` (configuration not stated), the T/C (endpoint: mean survival time, dose: 4.0 mg/kg/injection, schedule: Q01DX009 (ip), vehicle: saline) was 97 % of control and 106 % of control, the T/C (endpoint: mean survival time, dose: 8.0 mg/kg/injection, schedule: Q01DX009 (ip), vehicle: saline) was 96 % of control and 101 % of control and the T/C (endpoint: mean survival time, dose: 16.0 mg/kg/injection, schedule: Q01DX009 (ip), vehicle: saline) was 101 % of control and 110 % of control. For the same compound, the T/C (endpoint: mean survival time, dose: 32.0 mg/kg/injection, schedule: Q01DX009 (ip), vehicle: saline) was 104 % of control and 110 % of control and the T/C (endpoint: mean survival time, dose: 64.0 mg/kg/injection, schedule: Q01DX009 (ip), vehicle: saline) was 88 % of control.
With `CCN(CC)CCCC(C)Nc1ccnc2cc(Cl)ccc12` (configuration not stated) the T/C (endpoint: mean survival time, dose: 100.0 mg/kg/injection, schedule: Q04DX002 (ip), vehicle: saline) was 91 % of control.
With `O=C(N/N=C/c1ccccc1)c1ccccc1O` the T/C (endpoint: mean survival time, dose: 100.0 mg/kg/injection, schedule: Q01DX009 (ip), vehicle: Klucel (hydroxypropylcellulose) (HPC)) was 96 % of control, the T/C [5] was 100 % of control and the T/C (endpoint: mean survival time, dose: 200.0 mg/kg/injection, schedule: Q01DX009 (ip), vehicle: Klucel (hydroxypropylcellulose) (HPC)) was 97 % of control. The T/C [6] was 94 % of control, the T/C (endpoint: mean survival time, dose: 400.0 mg/kg/injection, schedule: Q01DX009 (ip), vehicle: Klucel (hydroxypropylcellulose) (HPC)) was 94 % of control and the T/C [7] was 94 % of control.
`C[N+](C)(C)CCO` was tested, and the T/C (endpoint: mean survival time, dose: 100.0 mg/kg/injection, schedule: Q01DX009 (ip), vehicle: saline) was 96 % of control, the T/C (endpoint: mean survival time, dose: 200.0 mg/kg/injection, schedule: Q01DX009 (ip), vehicle: saline) was 102 % of control and the T/C (endpoint: mean survival time, dose: 400.0 mg/kg/injection, schedule: Q01DX009 (ip), vehicle: saline) was 90 % of control.
In the case of `CC(C)CCCC(C)C1CCC2C3C(O)C=C4CC(OC(=O)CCC(C)C)CCC4(C)C3CCC12C` (configuration not stated), the T/C [2] was 94 % of control, the T/C [8] was 91 % of control and the T/C [9] was 100 % of control.
For `O=Cc1c2ccc(Cl)cc2nc2cc(Cl)ccc12`, the T/C [3] was 112 % of control, the T/C [4] was 93 % of control and the T/C [10] was 102 % of control.
For `COC(=O)c1ccc(C=O)cc1`, the T/C [5] was 87 % of control, the T/C [6] was 102 % of control and the T/C [7] was 94 % of control.
For `Cc1ccc(NC(=O)OCCSc2ccc(Cl)cc2)cc1C`, the T/C [1] was 96 % of control and the T/C [2] was 92 % of control.
`O=C(Nc1ccc(F)cc1)c1ccc(C(=O)Nc2ccc(F)cc2)cc1` was tested, and the T/C [3] was 100 % of control and the T/C [10] was 94 % of control.
For `CCCC1=CC(C)(C)CC(C)=C1` (tested in a mixture with another compound), the T/C [1] was 98 % of control, the T/C [2] was 96 % of control and the T/C [3] was 102 % of control. The T/C [8] was 100 % of control and the T/C [4] was 100 % of control.
`[CH3][Sn]([CH3])([Br])[CH2]CC[CH2][Sn]([CH3])([CH3])[Br]` was tested, and the T/C (endpoint: mean survival time, dose: 0.02 mg/kg/injection, schedule: Q01DX009 (ip), vehicle: saline) was 100 % of control, the T/C (endpoint: mean survival time, dose: 0.04 mg/kg/injection, schedule: Q01DX009 (ip), vehicle: saline) was 104 % of control and the T/C (endpoint: mean survival time, dose: 0.08 mg/kg/injection, schedule: Q01DX009 (ip), vehicle: saline) was 102 % of control. For the same compound, the T/C (endpoint: mean survival time, dose: 6.25 mg/kg/injection, schedule: Q01DX009 (ip), vehicle: saline) was 110 % of control.
For `CC(=O)N(C(C)=O)c1nc(Br)c2ccccc2c1-c1ccc([N+](=O)[O-])cc1`, the T/C (endpoint: mean survival time, dose: 50.0 mg/kg/injection, schedule: Q04DX003 (ip), vehicle: other) was 100 % of control, the T/C (endpoint: mean survival time, dose: 100.0 mg/kg/injection, schedule: Q04DX003 (ip), vehicle: other) was 94 % of control and the T/C (endpoint: mean survival time, dose: 200.0 mg/kg/injection, schedule: Q04DX003 (ip), vehicle: other) was 94 % of control. For the same compound, the T/C (endpoint: mean survival time, dose: 400.0 mg/kg/injection, schedule: Q04DX003 (ip), vehicle: other) was 88 % of control.
In the case of `CSc1nc(N)cc(N)n1`, the T/C [2] was 98 % of control, the T/C [3] was 98 % of control and the T/C [8] was 95 % of control. For the same compound, the T/C [4] was 97 % of control, the T/C [9] was 100 % of control and the T/C [10] was 102 % of control.
In the case of `CC1(c2ccc3ccccc3c2)OC(=O)c2ccccc21` (configuration not stated), the T/C (endpoint: median survival time, dose: 12.5 mg/kg/injection, schedule: Q04DX003 (ip), vehicle: saline with Tween-80) was 111 % of control, the T/C (endpoint: median survival time, dose: 25.0 mg/kg/injection, schedule: Q04DX003 (ip), vehicle: saline with Tween-80) was 100 % of control and the T/C (endpoint: median survival time, dose: 50.0 mg/kg/injection, schedule: Q04DX003 (ip), vehicle: saline with Tween-80) was 111 % of control. For the same compound, the T/C (endpoint: median survival time, dose: 100.0 mg/kg/injection, schedule: Q04DX003 (ip), vehicle: saline with Tween-80) was 88 % of control.
With `Nc1nccc(N2CCCCC2)n1` the T/C (endpoint: mean survival time, dose: 6.25 mg/kg/injection, schedule: Q04DX003 (ip), vehicle: saline with Tween-80) was 100 % of control, the T/C (endpoint: mean survival time, dose: 12.5 mg/kg/injection, schedule: Q04DX003 (ip), vehicle: saline with Tween-80) was 100 % of control and the T/C (endpoint: mean survival time, dose: 25.0 mg/kg/injection, schedule: Q04DX003 (ip), vehicle: saline with Tween-80) was 97 % of control.
For `CCCCCCCCCCC(=O)N1CCOCC1`, the T/C [1] was 87 % of control and the T/C [2] was 96 % of control.
With `COc1ccc(OC)c(Cc2cnc3nc(N)nc(N)c3c2C)c1` the T/C (endpoint: median survival time, dose: 2.5 mg/kg/injection, schedule: Q01DX009 (ip), vehicle: dextrose) was 103 % of control, the T/C (endpoint: median survival time, dose: 5.0 mg/kg/injection, schedule: Q01DX009 (ip), vehicle: dextrose) was 101 % of control and 102 % of control and the T/C (endpoint: median survival time, dose: 6.25 mg/kg/injection, schedule: Q01DX009 (ip), vehicle: water) was 95 % of control. For the same compound, the T/C (endpoint: median survival time, dose: 10.0 mg/kg/injection, schedule: Q01DX009 (ip), vehicle: dextrose) was 101 % of control and 102 % of control, the T/C (endpoint: median survival time, dose: 12.5 mg/kg/injection, schedule: Q01DX009 (ip), vehicle: water) was 98 % of control and the T/C (endpoint: median survival time, dose: 20.0 mg/kg/injection, schedule: Q01DX009 (ip), vehicle: dextrose) was 106 % of control and 112 % of control. For the same compound, the T/C (endpoint: median survival time, dose: 25.0 mg/kg/injection, schedule: Q01DX009 (ip), vehicle: water) was 111 % of control, the T/C (endpoint: median survival time, dose: 50.0 mg/kg/injection, schedule: Q01DX009 (ip), vehicle: water) was 151 % of control and the T/C (endpoint: median survival time, dose: 80.0 mg/kg/injection, schedule: Q01DX009 (ip), vehicle: dextrose) was 103 % of control. For the same compound, the T/C (endpoint: median survival time, dose: 100.0 mg/kg/injection, schedule: Q01DX009 (ip), vehicle: water) was 88 % of control.
`C=Cc1ccc(NC(=O)CCn2cnc3c(N)ncnc32)cc1` was tested, and the T/C (endpoint: mean survival time, dose: 12.5 mg/kg/injection, schedule: Q01DX005 (ip), vehicle: distilled water + Tween-80) was 100 % of control, the T/C (endpoint: mean survival time, dose: 25.0 mg/kg/injection, schedule: Q01DX005 (ip), vehicle: distilled water + Tween-80) was 102 % of control and the T/C (endpoint: mean survival time, dose: 50.0 mg/kg/injection, schedule: Q01DX005 (ip), vehicle: distilled water + Tween-80) was 98 % of control. The T/C (endpoint: mean survival time, dose: 100.0 mg/kg/injection, schedule: Q01DX005 (ip), vehicle: distilled water + Tween-80) was 98 % of control and the T/C (endpoint: mean survival time, dose: 200.0 mg/kg/injection, schedule: Q01DX005 (ip), vehicle: distilled water + Tween-80) was 98 % of control.
`CCOn1nc(-c2cccc3ccccc23)oc1=O` was tested, and the T/C (endpoint: mean survival time, dose: 100.0 mg/kg/injection, schedule: Q01DX001 (ip), vehicle: saline with Tween-80) was 91 % of control, the T/C (endpoint: mean survival time, dose: 200.0 mg/kg/injection, schedule: Q01DX001 (ip), vehicle: saline with Tween-80) was 95 % of control and the T/C (endpoint: mean survival time, dose: 400.0 mg/kg/injection, schedule: Q01DX001 (ip), vehicle: saline with Tween-80) was 95 % of control.
